This passage reports IC50 results from patent US20230203045A1, “INHIBITORS OF NEK7 KINASE” (Halia Therapeutics, Inc., priority 2020, published 2023).

One assay has as its system IL-1β release. As to the kind of experiment: IL-1β Release Assay. The class given is cell-based. The following applies: Homo sapiens; PMA-differentiated THP-1 cells, 250 ng/mL LPS then 20 μM nigericin; cleaved IL-1β in media; read-out: I1-1β release IC50. As for the experimental part:
Approximately 1.5 million THP-1 cells were plated in each well of a 6-well TC plate and incubated with 40 nM PMA in RPMI (10% FBS, 1% Penstrep) for 24 hours. The media was then removed and cells were rested in RPMI (10% FBS, 1% Penstrep) for 24 hours after which time the media was removed and cells were pre-treated for 2 hours with various concentrations of compounds of interest (typically serial 3-fold dilution in RPMI+5% FBS, concentrations ranging from 1 μM to 0.5 nM) in RPMI (5% FBS). The media was again removed and cells were incubated with 250 ng/mL LPS and compounds of interest (concentrations as above) in RMPI (5% FBS) for 2 hours. The media was removed for a last time and cells were incubated with 20 μM nigericin and compounds of interest (concentrations as above) in Opti-MEM for 30 minutes. Cell media was then collected and the amount of cleaved IL-1β was determined using a JESS instrument (Protein Simple) and standard protocols. Cleaved Il-1β antibody was obtained from Cell Signaling (catalogue #83186S) and was used at 1:20 dilution in antibody diluent 2. Protein Simple 1× anti-Rabbit HRP secondary antibody was used along with Protein Simple luminol and peroxide for chemiluminescent detection. Primary antibody incubation time was increased from 30 minutes to 60 minutes.

Assay [1] deals with T1, full-length recombinant human NEK7 (Homo sapiens, UniProt Q8TDX7).
T1 construct: full-length recombinant human NEK7; GST (N); purchased SignalChem Nab 09-10G; host or cells: Sf9 insect cells (baculovirus)
T1 sequence (Q8TDX7 whole entry): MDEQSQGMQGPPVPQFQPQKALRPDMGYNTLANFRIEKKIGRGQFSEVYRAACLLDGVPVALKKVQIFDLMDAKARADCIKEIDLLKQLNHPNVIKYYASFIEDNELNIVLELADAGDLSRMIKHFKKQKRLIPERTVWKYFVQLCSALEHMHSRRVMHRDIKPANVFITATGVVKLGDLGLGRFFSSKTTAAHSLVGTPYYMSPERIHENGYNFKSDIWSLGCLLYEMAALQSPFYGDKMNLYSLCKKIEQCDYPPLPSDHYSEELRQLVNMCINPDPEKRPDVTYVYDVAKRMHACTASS
As to the kind of experiment: NEK7 Enzymatic Assay. The class given is biochemical. The conditions noted are these: casein substrate, [33P]-ATP, 2 hours at room temperature. As for the experimental part:
Casein substrate (from bovine milk, hydrolyzed and partially dephosphorylated mixture of α, β and κ caseins, obtained from Sigma Aldrich, catalogue #C4765, diluted in distilled water to a final concentration of 1 mg/mL) and full-length recombinant human NEK7 (expressed by baculovirus in Sf9 insect cells using a N-terminal GST tag, obtained from SignalChem, catalogue #Nab 09-10G, 0.1 μg/μL) were mixed in assay buffer (20 mM Hepes pH 7.5, 10 mM MgCl2, 1 mM EGTA, 0.02% Brij35, 0.02 mg/ml BSA, 0.1 mM Na3VO4, 2 mM DTT, 1% DMSO). Compounds of interest (serial 3-fold dilution in DMSO from 10 μM to 0.5 nM) or vehicle (1% DMSO) were dispensed into the kinase reaction mixture by Acoustic technology (Echo550; nanoliter range). After incubation at room temperature for 20 minutes, the kinase reaction was initiated by addition of [^33P]-ATP (specific activity 10 μCi/μl) and the mixture was incubated at room temperature for 2 hours. The reaction was then stopped by spotting the reaction mixture on strips of phosphocellulose P81 paper. Following washing, the radioactivity of the P81 paper was measured and kinase activity data were expressed as the percent remaining kinase activity in test samples compared to vehicle reactions. IC50 values and curve fits were obtained using Prism (GraphPad Software).

By IC50 is commonly meant the concentration at which inhibition is half-maximal. Consider `CC(C)(C)c1cc(NC(=O)Nc2ccc(-c3nn(C4CC4)c4ccnc(N)c34)cc2F)on1` [Example 30, 1-(4-(4-amino-1-cyclopropyl-1H-pyrazolo[4,3-c]pyridin-3-yl)-2-fluorophenyl)-3-(3-(tert-butyl)isoxazol-5-yl)urea], for which, in the assay on IL-1β release, the IC50 was under 50 nM. On the same count and under the same terms, the value for `CC1(c2cc(NC(=O)Nc3ccc(-c4nn(C5CC5)c5ncnc(N)c45)cc3F)on2)CC1` [Example 32, 1-(4-(4-amino-1-cyclopropyl-1H-pyrazolo[3,4-d]pyrimidin-3-yl)-2-fluorophenyl)-3-(3-(1-methylcyclopropyl)isoxazol-5-yl)] was 51 to 200 nM; that for `Nc1ncnc2c1c(-c1ccc(NC(=O)Nc3cc(C4(C(F)(F)F)CC4)no3)c(F)c1)nn2C1CC1` [Example 21, 1-(4-(4-amino-1-cyclopropyl-1H-pyrazolo[3,4-d]pyrimidin-3-yl)-2-fluorophenyl)-3-(3-(1-(trifluoromethyl)cyclopropyl)isoxazol-5-yl)urea] was under 50 nM.

For the compound `Nc1nccc2c1c(-c1ccc(NC(=O)Nc3cc(C4(C(F)(F)F)CC4)no3)c(F)c1)nn2C1CC1` [Example 45, 1-(4-(4-amino-1-cyclopropyl-1H-pyrazolo[4,3-c]pyridin-3-yl)-2-fluorophenyl)-3-(3-(1-(trifluoromethyl)cyclopropyl)isoxazol-5-yl)urea], the IC50 with IL-1β release is 51 to 200 nM.

Consider `CC(C)(C)c1cc(NC(=O)Nc2ccc(-c3nn(C4COC4)c4ncnc(N)c34)cc2F)on1` [Example 12, 1-(4-(4-amino-1-(oxetan-3-yl)-1H-pyrazolo[3,4-d]pyrimidin-3-yl)-2-fluorophenyl)-3-(3-(tert-butyl)isoxazol-5-yl)urea], for which the IC50 with IL-1β release was 51 to 200 nM.

As to `CC(C)(C)c1nnc(NC(=O)Nc2ccc(-c3nn(C4CC4)c4ncnc(N)c34)cc2F)s1` [Example 33, 1-(4-(4-amino-1-cyclopropyl-1H-pyrazolo[3,4-d]pyrimidin-3-yl)-2-fluorophenyl)-3-(5-(tert-butyl)-1,3,4-thiadiazol-2-yl)], the values for the IC50 (in the assay with IL-1β release; in assay [1]) were 201 to 500 nM and over 501 nM, respectively. On to `Nc1ncnc2c1c(-c1ccc(NC(=O)Nc3cc(C4(C(F)(F)F)CC4)on3)c(F)c1)nn2C1CC1` [Example 25, 1-(4-(4-amino-1-cyclopropyl-1H-pyrazolo[3,4-d]pyrimidin-3-yl)-2-fluorophenyl)-3-(5-(1-(trifluoromethyl)cyclopropyl)isoxazol-3-yl)urea], for which the IC50 in the assay with IL-1β release lay within 51 to 200 nM.

For the compound `CC(C)(C)c1cc(NC(=O)Nc2ccc(-c3nn(C4CC4)c4ncnc(N)c34)cc2F)on1` [Example 13, 1-(4-(4-amino-1-cyclopropyl-1H-pyrazolo[3,4-d]pyrimidin-3-yl)-2-fluorophenyl)-3-(3-(tert-butyl)isoxazol-5-yl)urea], in the assay on IL-1β release, the IC50 was under 50 nM. As for `Nc1nccc2c1c(-c1ccc(NC(=O)Nc3cc(C4(C(F)(F)F)CC4)no3)nc1)nn2C1CC1` [Example 54, 1-(5-(4-amino-1-cyclopropyl-1H-pyrazolo[4,3-c]pyridin-3-yl)pyridin-2-yl)-3-(3-(1-(trifluoromethyl)cyclopropyl)isoxazol-5-yl)urea], in assay [1], the IC50 was 151 to 300 nM. For `CC(C)(O)Cn1nc(-c2ccc(NC(=O)Nc3cc(C4(C(F)(F)F)CC4)no3)c(F)c2)c2c(N)ncnc21` [Example 66, 1-(4-(4-amino-1-(2-hydroxy-2-methylpropyl)-1H-pyrazolo[3,4-d]pyrimidin-3-yl)-2-fluorophenyl)-3-(3-(1-(trifluoromethyl)cyclopropyl)isoxazol-5-yl)urea], the IC50 in assay [1] fell in the range of 151 to 300 nM. Regarding `CC(C)(C)c1csc(NC(=O)Nc2ccc(-c3nn(C4CC4)c4ncnc(N)c34)cc2F)n1` [Example 34, 1-(4-(4-amino-1-cyclopropyl-1H-pyrazolo[3,4-d]pyrimidin-3-yl)-2-fluorophenyl)-3-(4-(tert-butyl)thiazol-2-yl)urea], the IC50 in assay [1] is over 501 nM. In the case of `Nc1ncnc2c1c(-c1ccc(NC(=O)Nc3cc(CO)no3)c(F)c1)nn2C1CC1` [Example 53, 1-(4-(4-amino-1-cyclopropyl-1H-pyrazolo[3,4-d]pyrimidin-3-yl)-2-fluorophenyl)-3-(3-(hydroxymethyl)isoxazol-5-yl)urea], in assay [1], the IC50 is over 501 nM. As to `CC(C)(C)c1cc(NC(=O)Nc2ccc(-c3nn(C4CCN(C5COC5)CC4)c4ncnc(N)c34)cc2F)on1` [Example 14, 1-(4-(4-amino-1-(1-(oxetan-3-yl)piperidin-4-yl)-1H-pyrazolo[3,4-d]pyrimidin-3-yl)-2-fluorophenyl)-3-(3-(tert-butyl)isoxazol-5-yl)urea], the IC50 in the assay on IL-1β release was under 50 nM.

With `CN1CC(n2nc(-c3ccc(NC(=O)Nc4cc(C5(C(F)(F)F)CC5)on4)c(F)c3)c3c(N)ncnc32)C1` [Example 68, 1-(4-(4-amino-1-(1-methylazetidin-3-yl)-1H-pyrazolo[3,4-d]pyrimidin-3-yl)-2-fluorophenyl)-3-(5-(1-(trifluoromethyl)cyclopropyl)isoxazol-3-yl)urea], the IC50 in assay [1] was over 501 nM.
